Laboratory results: US4533665A, “[[Bis(aryl)methylene]-1-piperidinyl]alkyl-pyrimidinones” (Janssen Pharmaceutica, priority 1984, dated 1985)

Target: T1, S2-receptor (Rattus norvegicus, UniProt P14842)
T1 construct: Caudal arteries from fasted male rats; from tissue; host or cells: rat caudal artery, helical strips
Assay: antagonistic activity on the effect of serotonin on the caudal artery of the rat (caudal artery test)
Details: rat caudal artery strips; serotonin 40 ng/ml; 5 minutes after adding the drug; read-out: ED50 (minimal concentration which reduces the amplitude of the serotonin-induced contraction to at least 50% of its normal value) (converted)
Method: ANTAGONISTIC ACTIVITY ON THE EFFECT OF SEROTONIN ON THE CAUDAL ARTERY OF THE RAT
Caudal arteries from fasted male rats (210-235 g) were used in the test. […] Submaximal contractions of the arterial strips were produced by adding single doses of serotonin (40 ng/ml) to the organ bath for 2 minutes with each time an interval of 10 minutes. The amplitude of the contraction was measured before and 5 minutes after adding the drug. After washing out, the agonist was added again three times in order to see whether the contraction was restored and normalized. […] In this connection the ED50 -values are the minimal concentrations of the concerned drugs which reduce the amplitude of the contraction to at least 50% of its normal value.

T1 sequence (P14842 whole entry): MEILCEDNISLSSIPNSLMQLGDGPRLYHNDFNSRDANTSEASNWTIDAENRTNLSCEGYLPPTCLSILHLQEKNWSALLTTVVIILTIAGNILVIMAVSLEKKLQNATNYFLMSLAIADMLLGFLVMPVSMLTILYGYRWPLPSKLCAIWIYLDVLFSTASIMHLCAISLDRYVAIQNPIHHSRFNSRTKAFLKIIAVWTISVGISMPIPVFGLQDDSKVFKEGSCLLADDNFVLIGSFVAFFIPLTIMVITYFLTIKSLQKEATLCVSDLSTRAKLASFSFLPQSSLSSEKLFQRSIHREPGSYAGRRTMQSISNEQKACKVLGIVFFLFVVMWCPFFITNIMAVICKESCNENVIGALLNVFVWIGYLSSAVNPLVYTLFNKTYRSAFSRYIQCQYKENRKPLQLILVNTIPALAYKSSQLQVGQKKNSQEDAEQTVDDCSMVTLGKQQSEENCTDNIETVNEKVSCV

| IC50 [pM] | SMILES |
| --- | --- |
| 2.88 | Cc1nc2ccccn2c(=O)c1CCN1CCC(=C(c2ccccc2)c2ccc(O)cc2)CC1 [Compound 78] |
| 0.702 | Cc1cccc(C(=C2CCN(CCc3c(C)nc4sccn4c3=O)CC2)c2ccccc2)c1 [Compound 69] |
